Results published in US20160368879A1, “PHOTOACID GENERATOR, AND RESIN COMPOSITION FOR PHOTOLITHOGRAPHY” (SAN-APRO LTD., priority 2013, published 2016).

Legend:
Format in all cases: physicochemical
[1] = Molar extinction coefficient of i-line (365 nm), UV-visible absorbance in acetonitrile; settings: 0.25 mmol/L in acetonitrile, cell length 1 cm
Method: The synthesized photoacid generator was diluted to 0.25 mmol/L with acetonitrile, and using an ultraviolet-visible spectrophotometer (UV-2550 available from SHIMADZU CORPORATION), the absorbance in a range of 200 nm to 500 nm was measured with a cell having an optical path length (a cell length) of 1 cm. The molar extinction coefficient of i-line (365 nm) (ε365) was calculated from the following equation.
[In the equation, […] represents the absorbance at 365 nm.]

[2] = Thermal decomposition temperature (TG/DTA, 2% weight reduction); settings: point of 2% weight reduction; 10° C./minute from 30° C. to 500° C.; nitrogen atmosphere
Method: The synthesized photoacid generator was measured for the change in weight under a temperature increasing condition of 10° C./minute from 30° C. to 500° C. under a nitrogen atmosphere using a thermal gravimetric/differential thermal analyzer (TG/DTA 6200, available from Seiko Instruments Inc.), and a point where the weight was reduced by 2% was defined as the thermal decomposition temperature.

[3] = Solvent solubility (butyl acetate, toluene or PGMEA); settings: for Solvent solubility PGMEA / Solvent solubility Butyl acetate / Solvent solubility Toluene: 25° C.; for solubility to a solvent (in words): summary of Tables 4 to 6
Method: In a test tube, 0.1 g of the synthesized photoacid generator was placed, and an organic solvent (butyl acetate, toluene or PGMEA) was added thereto in 0.2 g portions under a condition where the temperature was adjusted to 25° C. until the photoacid generator was completely dissolved. In this connection, in the case where the photoacid generator was not completely dissolved even when 20 g of the solvent was added, the photoacid generator was evaluated as one that was not dissolved.

| SMILES | Molar extinction coefficient [1] | Thermal decomposition temperature [2] | Solvent solubility PGMEA [3] | Solvent solubility Butyl acetate [3] | solubility to a solvent (in words) [3] | Solvent solubility Toluene [3] |
| --- | --- | --- | --- | --- | --- | --- |
| O=C1c2cccc3cccc(c23)C(=O)N1OS(=O)(=O)C(F)(F)F [A′-1, 1,8-naphthalimide trifluoromethanesulfonate, reference compound] | 330 L/mol/cm | 225 °C | 2.4 wt % | 2 wt % | insufficient | 4 wt % |
| c1ccc(Sc2ccc([S+](c3ccccc3)c3ccccc3)cc2)cc1 [A′-2, reference compound] | 80 L/mol/cm | 340 °C | >30 wt % | <0.5 wt % | – | <0.5 wt % |
| O=C1c2cccc3cccc(c23)C(=O)N1OS(=O)(=O)c1c(F)c(F)c(F)c(F)c1F [A′-3, 1,8-naphthalimide pentafluorobenzenesulfonate, reference compound] | 330 L/mol/cm | 228 °C | 1.9 wt % | 1.6 wt % | insufficient | 3.2 wt % |
| CC1(C)C2CCC1(CS(=O)(=O)ON1C(=O)c3cccc4cccc(c34)C1=O)C(=O)C2 (stereo not drawn) [A′-5, 1,8-naphthalimide-(+)-10-camphorsulfonate, reference compound] | 330 L/mol/cm | 230 °C | <0.5 wt % | <0.5 wt % | insufficient | <0.6 wt % |
| CC(C)Oc1ccc2c3c(cccc13)C(=O)N(OS(=O)(=O)C(F)(F)F)C2=O [Example A-1, 4-isopropoxy-1,8-naphthalimide trifluoromethanesulfonate] | 16300 L/mol/cm | 234 °C | 6.5 wt % | 8.5 wt % | – | 9 wt % |
| CCCOc1ccc2c3c(cccc13)C(=O)N(OS(=O)(=O)C(F)(F)F)C2=O [Example A-2, 4-n-propoxy-1,8-naphthalimide trifluoromethanesulfonate] | 14000 L/mol/cm | 238 °C | 4 wt % | 4.5 wt % | – | 7.5 wt % |
| O=C1c2cccc3c(OCC(F)(F)C(F)F)ccc(c23)C(=O)N1OS(=O)(=O)C(F)(F)F [Example A-3, 4-(2,2,3,3-tetrafluoro-1-propoxy)-1,8-naphthalimide trifluoromethanesulfonate] | 12000 L/mol/cm | 230 °C | 7.5 wt % | 6 wt % | – | 12 wt % |
| O=C(Cc1ccccc1)c1ccc2c3c(cccc13)C(=O)N(OS(=O)(=O)C(F)(F)F)C2=O [Example A-4, 4-phenylacetyl-1,8-naphthalimide trifluoromethanesulfonate] | 3000 L/mol/cm | 240 °C | 4 wt % | 4.5 wt % | – | 7 wt % |
| O=C1c2cccc3c(Oc4c(F)c(F)c(F)c(F)c4F)ccc(c23)C(=O)N1OS(=O)(=O)C(F)(F)F [Example A-5, 4-pentafluorophenoxy-1,8-naphthalimide trifluoromethanesulfonate] | 12000 L/mol/cm | 245 °C | 14 wt % | 17 wt % | – | 16 wt % |
| O=C1c2cccc3c(Oc4cccc(C(F)(F)F)c4)ccc(c23)C(=O)N1OS(=O)(=O)C(F)(F)F [Example A-6, 4-(3-trifluoromethylphenoxy)-1,8-naphthalimide trifluoromethanesulfonate] | 16000 L/mol/cm | 239 °C | 11 wt % | 14 wt % | – | 13 wt % |
| O=C1c2cccc3c(Sc4ccccc4)ccc(c23)C(=O)N1OS(=O)(=O)C(F)(F)F [Example A-7, 4-phenylthio-1,8-naphthalimide trifluoromethanesulfonate] | 20000 L/mol/cm | 240 °C | 5 wt % | 7 wt % | – | 7 wt % |
| COc1cc2c3c(cccc3c1)C(=O)N(OS(=O)(=O)C(F)(F)F)C2=O [Example A-8, 3-methoxy-1,8-naphthalimide trifluoromethanesulfonate] | 7500 L/mol/cm | 243 °C | 6 wt % | 8 wt % | – | 7.5 wt % |
| CCCCC(CC)C(=O)Oc1cc2c3c(cccc3c1)C(=O)N(OS(=O)(=O)C(F)(F)F)C2=O (stereo not drawn) [Example A-9, 3-(2-ethylhexanoyloxy)-1,8-naphthalimide trifluoromethanesulfonate] | 1500 L/mol/cm | 231 °C | >30 wt % | >30 wt % | – | >30 wt % |
| CCCC(=O)Oc1cc2c3c(cccc3c1)C(=O)N(OS(=O)(=O)C(F)(F)F)C2=O [Example A-10, 3-butyroyloxy-1,8-naphthalimide trifluoromethanesulfonate] | 1600 L/mol/cm | 234 °C | >30 wt % | >30 wt % | – | >30 wt % |
| O=C(Oc1cc2c3c(cccc3c1)C(=O)N(OS(=O)(=O)C(F)(F)F)C2=O)c1ccccc1 [Example A-11, 3-benzoyloxy-1,8-naphthalimide trifluoromethanesulfonate] | 1400 L/mol/cm | 241 °C | 20 wt % | 25 wt % | – | 23 wt % |
| O=C(Oc1cc2c3c(cccc3c1)C(=O)N(OS(=O)(=O)C(F)(F)F)C2=O)c1c(F)c(F)c(F)c(F)c1F [Example A-12, 3-pentafluorobenzoyloxy-1,8-naphthalimide trifluoromethanesulfonate] | 1300 L/mol/cm | 242 °C | >30 wt % | >30 wt % | – | >30 wt % |
| CC(C)(C)c1cc2c3c(cc(C(C)(C)C)cc3c1)C(=O)N(OS(=O)(=O)C(F)(F)F)C2=O [Example A-13, 3,6-di-tert-butyl-1,8-naphthalimide trifluoromethanesulfonate] | 6500 L/mol/cm | 245 °C | 8 wt % | 8 wt % | – | 7.5 wt % |
| CC(C)(C)Cc1cc2c3c(cc(CC(C)(C)C)cc3c1)C(=O)N(OS(=O)(=O)C(F)(F)F)C2=O [Example A-14, 3,6-dineopentyl-1,8-naphthalimide trifluoromethanesulfonate] | 6200 L/mol/cm | 248 °C | 14 wt % | 18 wt % | – | 10 wt % |
| O=C1c2cc(C34CC5CC(CC(C5)C3)C4)cc3cc(C45CC6CC(CC(C6)C4)C5)cc(c23)C(=O)N1OS(=O)(=O)C(F)(F)F [Example A-15, 3,6-diadamantyl-1,8-naphthalimide trifluoromethanesulfonate] | 6000 L/mol/cm | 250 °C | 7 wt % | 7.5 wt % | – | 8.5 wt % |
| O=C1c2cccc3c(C(F)(F)C(F)(F)C(F)(F)C(F)(F)F)ccc(c23)C(=O)N1OS(=O)(=O)C(F)(F)F [Example A-16, 4-(nonafluorobutyl)-1,8-naphthalimide trifluoromethanesulfonate] | 40 L/mol/cm | 239 °C | 22 wt % | 25 wt % | – | 28 wt % |
| O=C1c2cccc3c(C(F)(F)C(F)(F)C(F)(F)C(F)(F)C(F)(F)C(F)(F)C(F)(F)C(F)(F)F)ccc(c23)C(=O)N1OS(=O)(=O)C(F)(F)F [Example A-17, 4-(heptadecafluoro-n-octyl)-1,8-naphthalimide trifluoromethanesulfonate] | 80 L/mol/cm | 242 °C | >30 wt % | >30 wt % | – | >30 wt % |
